In PubChem BioAssay (NCI):
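Method: 48-hour compound exposure of cells in 96-well plates, five concentrations, linear interpolation of endpoints. At the GI50, growth is halved. TGI marks complete inhibition of growth.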

What was measured:
Test in all cases: NCI tumour cell line growth inhibition, 48 h
SW-620 colon = system: SW-620 colon
NCI-H226 lung = system: NCI-H226 lung
ACHN renal = system: ACHN renal
HOP-62 NSCLC = system: HOP-62 NSCLC
UACC-62 melanoma = system: UACC-62 melanoma
MALME-3M melanoma = system: MALME-3M melanoma
OVCAR-5 ovarian = system: OVCAR-5 ovarian
HOP-92 NSCLC = system: HOP-92 NSCLC
T-47D breast = system: T-47D breast
NCI-H23 lung = system: NCI-H23 lung
MDA-MB-435 = system: MDA-MB-435
NCI-H460 lung = system: NCI-H460 lung
K-562 leukemia = system: K-562 leukemia
NCI/ADR-RES ovarian = system: NCI/ADR-RES ovarian
LOX IMVI melanoma = system: LOX IMVI melanoma
IGROV1 ovarian = system: IGROV1 ovarian
SK-OV-3 ovarian = system: SK-OV-3 ovarian
SNB-19 CNS = system: SNB-19 CNS
HL-60(TB) leukemia = system: HL-60(TB) leukemia
U251 CNS = system: U251 CNS
HS 578T breast = system: HS 578T breast
RXF 393 renal = system: RXF 393 renal
EKVX NSCLC = system: EKVX NSCLC
DU-145 prostate = system: DU-145 prostate
SNB-75 CNS = system: SNB-75 CNS
MDA-MB-231 breast = system: MDA-MB-231 breast
SF-295 CNS = system: SF-295 CNS
786-0 renal = system: 786-0 renal
SF-268 CNS = system: SF-268 CNS
SK-MEL-5 melanoma = system: SK-MEL-5 melanoma
COLO 205 colon = system: COLO 205 colon
SK-MEL-2 melanoma = system: SK-MEL-2 melanoma
HCT-15 colon = system: HCT-15 colon
NCI-H522 lung = system: NCI-H522 lung
A498 renal = system: A498 renal
KM12 colon = system: KM12 colon
OVCAR-4 ovarian = system: OVCAR-4 ovarian
CCRF-CEM leukemia = system: CCRF-CEM leukemia
HCC-2998 colon = system: HCC-2998 colon
MOLT-4 leukemia = system: MOLT-4 leukemia
BT-549 breast = system: BT-549 breast
MCF7 breast = system: MCF7 breast
OVCAR-3 ovarian = system: OVCAR-3 ovarian
A549 NSCLC = system: A549 NSCLC
HCT-116 colon = system: HCT-116 colon
OVCAR-8 ovarian = system: OVCAR-8 ovarian
RPMI-8226 leukemia = system: RPMI-8226 leukemia
SK-MEL-28 melanoma = system: SK-MEL-28 melanoma
SN12C renal = system: SN12C renal
UO-31 renal = system: UO-31 renal
PC-3 prostate = system: PC-3 prostate
M14 melanoma = system: M14 melanoma
SF-539 CNS = system: SF-539 CNS
HT29 colon = system: HT29 colon
SR leukemia = system: SR leukemia
CAKI-1 renal = system: CAKI-1 renal
TK-10 renal = system: TK-10 renal
UACC-257 melanoma = system: UACC-257 melanoma

## CC(=O)OCC1OC(OC2=C(CC=C(C)C)C(=O)c3ccccc3C2=O)C(OC(C)=O)C(OC(C)=O)C1OC(C)=O (stereo unspecified)
SW-620 colon
  GI50: 2780 nM
  TGI: 9.18 µM
NCI-H226 lung
  GI50: 5.58 µM
  TGI: 28.3 µM
ACHN renal
  GI50: 3.16 µM
  TGI: 10.1 µM
HOP-62 NSCLC
  GI50: 18 µM
  TGI: 33.6 µM
UACC-62 melanoma
  GI50: 2450 nM
  TGI: 7.15 µM
MALME-3M melanoma
  GI50: 4.96 µM
  TGI: 19.6 µM
OVCAR-5 ovarian
  GI50: 4.57 µM
  TGI: 16.2 µM
HOP-92 NSCLC
  GI50: 1520 nM
  TGI: 3.77 µM
T-47D breast
  GI50: 1930 nM
  TGI: 4.24 µM
NCI-H23 lung
  GI50: 4.13 µM
  TGI: 16.9 µM
MDA-MB-435
  GI50: 2900 nM
  TGI: 9.09 µM
NCI-H460 lung
  GI50: 4.12 µM
  TGI: 15.5 µM
K-562 leukemia
  GI50: 2720 nM
  TGI: > 30.4 µM
NCI/ADR-RES ovarian
  GI50: 3.07 µM
  TGI: 10.2 µM
LOX IMVI melanoma
  GI50: 2580 nM
  TGI: 8.01 µM
IGROV1 ovarian
  GI50: 3.47 µM
  TGI: 8.21 µM
SK-OV-3 ovarian
  GI50: 12.9 µM
  TGI: 25.9 µM
SNB-19 CNS
  GI50: 6.28 µM
  TGI: 16.2 µM
HL-60(TB) leukemia
  GI50: 2910 nM
  TGI: 6.62 µM
U251 CNS
  GI50: 2920 nM
  TGI: 11.5 µM
HS 578T breast
  GI50: 5.21 µM
  TGI: > 32.6 µM
RXF 393 renal
  GI50: 3.76 µM
  TGI: 8.32 µM
EKVX NSCLC
  GI50: 2810 nM
  TGI: 11.6 µM
DU-145 prostate
  GI50: 10.9 µM
  TGI: 22.9 µM
SNB-75 CNS
  GI50: 3.35 µM
  TGI: 11.4 µM
MDA-MB-231 breast
  GI50: 2630 nM
  TGI: 8.41 µM
SF-295 CNS
  GI50: 3.67 µM
  TGI: 12.7 µM
786-0 renal
  GI50: 14.1 µM
  TGI: 27.3 µM
SF-268 CNS
  GI50: 4.23 µM
  TGI: 15.5 µM
SK-MEL-5 melanoma
  GI50: 2240 nM
  TGI: 5.15 µM
COLO 205 colon
  GI50: 11.5 µM
  TGI: 24.2 µM
SK-MEL-2 melanoma
  GI50: 2460 nM
  TGI: 5.67 µM
HCT-15 colon
  GI50: 3.91 µM
  TGI: 18.1 µM
NCI-H522 lung
  GI50: 1880 nM
  TGI: 4.85 µM
A498 renal
  GI50: > 33.6 µM
  TGI: > 56.9 µM
KM12 colon
  GI50: 2260 nM
  TGI: 4.89 µM
OVCAR-4 ovarian
  GI50: 2310 nM
  TGI: 6.7 µM
CCRF-CEM leukemia
  GI50: 3.83 µM
  TGI: > 100 µM
HCC-2998 colon
  GI50: 8.05 µM
  TGI: 20.5 µM
MOLT-4 leukemia
  GI50: 2500 nM
  TGI: 6.59 µM
BT-549 breast
  GI50: 2250 nM
  TGI: 6.95 µM
MCF7 breast
  GI50: 2060 nM
  TGI: 4.73 µM
OVCAR-3 ovarian
  GI50: 1930 nM
  TGI: 3.58 µM
A549 NSCLC
  GI50: 10.4 µM
  TGI: 40 µM
HCT-116 colon
  GI50: 1600 nM
  TGI: 3.05 µM
OVCAR-8 ovarian
  GI50: 3.23 µM
  TGI: 11.9 µM
RPMI-8226 leukemia
  GI50: 2030 nM
  TGI: 5.25 µM
SK-MEL-28 melanoma
  GI50: 5.22 µM
  TGI: 16.9 µM
SN12C renal
  GI50: 7.01 µM
  TGI: 23.9 µM
UO-31 renal
  GI50: 2680 nM
  TGI: 10.7 µM
PC-3 prostate
  GI50: 1970 nM
  TGI: 6.08 µM
M14 melanoma
  GI50: 5.67 µM
  TGI: 18.2 µM
SF-539 CNS
  GI50: 2840 nM
  TGI: 9.9 µM
HT29 colon
  GI50: 15.3 µM
  TGI: 36.7 µM
SR leukemia
  GI50: 3.55 µM
  TGI: 51.1 µM
CAKI-1 renal
  GI50: 6.55 µM
  TGI: 17.7 µM
TK-10 renal
  GI50: 15.1 µM
  TGI: 29.8 µM
UACC-257 melanoma
  GI50: 3.75 µM
  TGI: 10.3 µM
